In US20070092587A1, “Extract from plant of japanese parsley family and process for producing the same” (priority 2004, published 2007):

Assays:
[1] = tested on: mature adipocytes (3T3-L1 cells); test: Enhancing action on glucose uptake (2-deoxyglucose uptake) into mature adipocytes; assay type: cell-based; details: insulin 1 μg/mL positive control, compared to negative control
Experimental: The induction of differentiation into mature adipocytes was carried out by partially modifying the method of Rubin C. S. et al. 3T3-L1 cells were suspended in a 10% fetal bovine serum-containing Dulbecco's modified Eagle's medium containing 200 μM ascorbic acid so as to have a density of 4×10^3 cells/mL, and the suspension was put in each well of a 12-well microtiter plate in an amount of 2 mL per well. The cells were cultured at 37° C. for 7 days in the presence of 5% carbon dioxide gas. On the seventh day, the medium was exchanged with 2 mL of a 10% fetal bovine serum-containing Dulbecco's modified Eagle's medium containing 200 μM ascorbic acid, 0.25 μM dexamethasone, 10 μg/mL insulin and 0.5 mM 3-isobutyl-1-methylxanthine (manufactured by Nacalai Tesque, Inc., 19624-44). After 45 hours, the medium was exchanged with 2 mL of a 10% fetal bovine serum-containing Dulbecco's modified Eagle's medium containing 200 μM ascorbic acid and 5 μg/mL insulin. The medium was exchanged on after 2 days and 4 days, and the cells were cultured for 7 days, to give mature adipocytes.
As the evaluation of enhancing action on glucose uptake, and also as the evaluation of insulin-mimetic action, the amount of 2-deoxyglucose uptake into mature adipocytes stimulated with the sample ([…]) in the adipocytes was determined.
After the termination of the culture, the medium was removed, and the cells were washed twice with a 0.1% (w/v) bovine serum albumin (manufactured by Sigma, A8022)-containing Dulbecco's modified Eagle's medium. Thereafter, 1 mL of the […] ethanol solution at a final concentration of 0.1%, 0.067%, or 0.022%, […] solution at a final concentration of 0.2%, 0.067%, or 0.022%, […] ethanol solution or the dimethyl sulfoxide solution of the extract from the root portion of Angelica keiskei koidz. with the 100% ethanol so as to have a final concentration of 0.067% or 0.022%, each extract being prepared in Example 4, was put to each well. The cells were cultured overnight at 37° C. in the presence of 5% carbon dioxide gas. Here, a group without addition of the sample was set as a negative control. After the overnight culture, the cells were washed twice with a HEPES buffered saline (140 mM NaCl, 5 mM KCl, 2.5 mM MgSO4, 1 mM CaCl2, 20 mM HEPES-Na (pH 7.4)), and 0.9 mL of the […] ethanol solution at a final concentration of 0.1%, 0.067%, or 0.022%, […] solution at a final concentration of 0.2%, 0.067%, or 0.022%, […] ethanol solution or the dimethyl sulfoxide solution of the extract from the root portion of Angelica keiskei koidz. with the 100% ethanol so as to have a final concentration of 0.067% or 0.022%, was added thereto. The cells were cultured at 37° C. for 75 minutes. At the point when 45 minutes passed, there was set in a well without addition of the sample a group with addition of insulin so as to have a final concentration of 1 μg/mL as a positive control. Thereafter, 100 μL of a HEPES buffered saline containing 0.5 μCi/mL 2-deoxy-[1,2-^3H(N)]-glucose (manufactured by PerkinElmer Life Sciences Inc., NET549A) and 1 mM 2-deoxyglucose (manufactured by Nacalai Tesque, Inc., 10722-11) was added thereto, and the cells were further cultured at 37° C. for 10 minutes. […] The radioactivity was determined with a liquid scintillation counter LS6500 (manufactured by Beckmann) using 25 μl of the supernatant with Ultima Gold (manufactured by PerkinElmer Life Sciences Inc., 6013329) as a scintillation cocktail. […]

[2] = tested on: Preadipocyte cell line 3T3-L1; test: Induction of differentiation into adipocytes (amount of triglyceride biosynthesis); assay type: cell-based; details: for induction of biosynthesis of triglyceride (inducing action on differentiation into mature adipocytes): isolated compounds at final 1-30 μM, seven days after addition
Experimental: The induction of differentiation into adipocytes was carried out by partially modifying the method of Rubin C. S. et al. (J. Biol. Chem., Vol. 253, No. 20, p7570-7578 (1978)). Preadipocyte cell line 3T3-L1 (ATCC CCL-92.1) was suspended in a 10% fetal bovine serum (manufactured by GIBCO)-containing Dulbecco's modified Eagle's medium (manufactured by Sigma, D6046) containing 200 μM ascorbic acid (hereinafter referred to as A-D-MEM medium) so as to have a density of 4×10^3 cells/mL, and the suspension was put in each well of a 12-well microtiter plate in an amount of 2 mL per well. The cells were cultured at 37° C. for 7 days in the presence of 5% carbon dioxide gas. The medium was exchanged with the same medium on the second day and the fourth day. On the seventh day, the medium was exchanged with A-D-MEM medium containing 0.25 μM dexamethasone. […] Here, there were set a group with addition of 4 μL of a 5 mg/mL aqueous solution of insulin (manufactured by TAKARA BIO INC.) as a positive control, and a group with addition of dimethyl sulfoxide as a negative control. After 45 hours, the medium was exchanged with A-D-MEM medium. […] The cells were cultured for additional 7 days.
The amount of triglyceride in the adipocytes was determined as an index for inducing differentiation into matured adipocytes, and as evaluation of insulin-mimetic action. After the termination of the culture, the medium was removed, and the cells were washed twice with a phosphate buffered saline. One milliliter of a solvent of hexane: isopropanol=3:2 was added thereto. The mixture was allowed to stand at room temperature for 30 minutes, and thereafter the supernatant was collected. The procedures were repeated again, and 2 mL of the resulting supernatant was concentrated to dryness. The precipitate was dissolved in 100 μL of isopropanol, and thereafter the amount of triglyceride contained in 10 μL of the resulting solution was determined with Triglyceride E-Test (manufactured by Wako Pure Chemical Industries, Ltd., code 432-40201). All of the determinations were carried out twice.
Specifically, as a sample, there was set a group with addition of the dimethyl sulfoxide solution of the extract from the root portion of Angelica keiskei koidz. with the 40% aqueous ethanol solution at a final concentration of 0.1% or 0.033%, the dimethyl sulfoxide solution of the extract from the root portion of Angelica keiskei koidz. with the 50% aqueous ethanol solution at a final concentration of 0.033% or 0.011%, the dimethyl sulfoxide solution of the extract from the root portion of Angelica keiskei koidz. with the 70% aqueous ethanol solution at a final concentration of 0.022%, the dimethyl sulfoxide solution of the extract from the root portion of Angelica keiskei koidz. with the 60% or 80% aqueous ethanol solution or the dimethyl sulfoxide solution of the extract with the 100% ethanol so as to have a final concentration of 0.067% or 0.022%, respectively, to each well. Here, there were set a group with addition of 4 μL of a 5 mg/mL aqueous solution of insulin (manufactured by TAKARA BIO INC.) as a positive control, and a group with addition of dimethyl sulfoxide as a negative control. Thereafter, the medium and the sample were exchanged in the same manner as in the method described in Example 5, and after seven days from the addition of the sample, the amount of triglyceride in the adipocytes was determined.
Here, there were set a group with addition of 4 μL of a 5 mg/mL aqueous solution of insulin (manufactured by TAKARA BIO INC.) as a positive control, and a group with addition of dimethyl sulfoxide as a negative control. Thereafter, the medium and the sample were exchanged in the same manner as in the method described in Example 5, and after seven days from the addition of the sample, the amount of triglyceride in the adipocytes was determined.

[3] = biological target: T1, human muscle cell-derived aldose reductase (Homo sapiens, UniProt P15121); test: Inhibitory action for aldose reductase (change in NADPH absorbance at 340 nm, methylglyoxal substrate); assay type: biochemical
T1 construct: purchased Wako Pure Chemical Industries, Ltd
Experimental: Inhibitory action for aldose reductase of the extract from the root portion of Angelica keiskei koidz. was determined in accordance with the following method. As a sample, 20 μL of a 100 mM methylglyoxal solution was added to 10 μL of each of the kinds of ethanol extracts from the root portion of Angelica keiskei koidz. prepared in Example 4, and 10 μL of the water extract from the root portion of Angelica keiskei koidz. prepared in Preparation Example 1 (a solution prepared by dissolving the extract in a 50% aqueous dimethyl sulfoxide solution), 100 μL of 0.2 M phosphate buffer (pH 6.2), 20 μL of 1 mM NADPH (phosphate buffer), and 10 μL of a human muscle cell-derived aldose reductase solution (0.1 U/mL, manufactured by Wako Pure Chemical Industries, Ltd., phosphate buffer). For a period of 180 seconds after 30 seconds passed, the change in absorbance of NADPH at 340 nm was determined. As a negative control, a 50% aqueous dimethyl sulfoxide solution was used in place of the sample. Also, the absorbance was determined using distilled water as a blank solution for each sample in place of the methylglyoxal solution. The determination values were expressed as an average of two experimental values. The inhibitory ratio (%) for aldose reductase was calculated in accordance with the following formula: Inhibitory Ratio (%)=[1−(ΔAs−ΔAsb)/(ΔAc−ΔAcb)]×100, wherein ΔAs and ΔAc show a change in the absorbance of each of the sample solution and the negative control solution per minute; and ΔAsb and ΔAcb show a change in the absorbance of the blank solutions for the sample solution and the negative control solution per minute.
The inhibitory activity for aldose reductase of the extract from the leaf and stem portions of Angelica keiskei koidz. prepared in Example 3 was determined in the same manner as in Example 8.

aldose reductase = aldose reductase (Homo sapiens, UniProt P15121); details: clarified in WO 2004/031165; cited from earlier work
[4] = isolated compounds at final 3-30 μM

COc1ccc(C(=O)/C=C/c2ccc(O)cc2)c(O)c1CC=C(C)C [4-hydroxyderricin]
enhancement of 2-deoxy-[1,2-3H(N)]-glucose uptake [1, 4]: enhancement of 2-deoxy-[1,2-^3H(N)]-glucose uptake was found | induction of biosynthesis of triglyceride (inducing action on differentiation into mature adipocytes) [2]: induction of biosynthesis of triglyceride was found

CC(C)=CCc1c(O)ccc(C(=O)/C=C/c2ccc(O)cc2)c1O [Isobavachalcone, isobavachalcone]
enhancement of 2-deoxy-[1,2-3H(N)]-glucose uptake [1, 4]: enhancement of 2-deoxy-[1,2-^3H(N)]-glucose uptake was found | induction of biosynthesis of triglyceride (inducing action on differentiation into mature adipocytes) [2]: induction of biosynthesis of triglyceride was found | Inhibitory Ratio (%) of Aldose Reductase ([3]; 10 μM): 30.2% | Inhibitory Ratio (%) of Aldose Reductase ([3]; 20 μM): 47.4% | Inhibitory Ratio (%) of Aldose Reductase ([3]; 40 μM): 60.1%

COc1ccc2c(c1CC=C(C)C)O[C@H](c1ccc(O)cc1)CC2=O [Munduleaflavanone A, munduleaflavanone A]
induction of biosynthesis of triglyceride (inducing action on differentiation into mature adipocytes) [2]: induction of biosynthesis of triglyceride was found | Inhibitory Ratio (%) of Aldose Reductase ([3]; 2.5 μM): 38.5% | Inhibitory Ratio (%) of Aldose Reductase ([3]; 5 μM): 54.6% | Inhibitory Ratio (%) of Aldose Reductase ([3]; 10 μM): 68.5% | Inhibitory Ratio (%) of Aldose Reductase ([3]; 20 μM): 73.8%

CC(C)=CCC/C(C)=C/Cc1c(O)ccc2c1O[C@H](c1ccc(O)cc1)CC2=O [Prostratol F, prostratol F]
induction of biosynthesis of triglyceride (inducing action on differentiation into mature adipocytes) [2]: induction of biosynthesis of triglyceride was found | Inhibitory Ratio (%) of Aldose Reductase ([3]; 2.5 μM): 27.4% | Inhibitory Ratio (%) of Aldose Reductase ([3]; 5 μM): 46.3% | Inhibitory Ratio (%) of Aldose Reductase ([3]; 10 μM): 57.1% | Inhibitory Ratio (%) of Aldose Reductase ([3]; 20 μM): 61.4%

CC12CCC(O)C(C)(C)C1Cc1c(O)ccc(C(=O)/C=C/c3ccc(O)cc3)c1O2 (stereo not shown) [TB1]
inhibitory actions for aldose reductase (aldose reductase): inhibitory actions for aldose reductase are found | induction of biosynthesis of triglyceride (inducing action on differentiation into mature adipocytes) [2]: induction of biosynthesis of triglyceride was found

CC(C)=CCCC1(C)Oc2c(C(=O)/C=C/c3ccc(O)cc3)ccc(O)c2CC1O (stereo not shown) [TB2]
inhibitory actions for aldose reductase (aldose reductase): inhibitory actions for aldose reductase are found | induction of biosynthesis of triglyceride (inducing action on differentiation into mature adipocytes) [2]: induction of biosynthesis of triglyceride was found

bavachromanol
Inhibitory Ratio (%) of Aldose Reductase ([3]; 2.5 μM): 42.1% | Inhibitory Ratio (%) of Aldose Reductase ([3]; 5 μM): 58.2% | Inhibitory Ratio (%) of Aldose Reductase ([3]; 10 μM): 70.5% | Inhibitory Ratio (%) of Aldose Reductase ([3]; 20 μM): 80.1%

insulin: insulin (manufactured by TAKARA BIO INC.), positive control [reference compound]
enhancement of 2-deoxy-[1,2-3H(N)]-glucose uptake [1, 4]: enhancement of 2-deoxy-[1,2-^3H(N)]-glucose uptake was found | enhancement of 2-deoxy-[1,2-3H(N)]-glucose uptake ([1]; root extracts (Example 4) at final 0.022-0.2%): enhancement of 2-deoxy-[1,2-^3H(N)]-glucose uptake was found | induction of triglyceride biosynthesis (activity of inducing differentiation into adipocytes) ([2]; leaf and stem extracts (Example 3) at final 0.011-0.2%, insulin positive control, compared to dimethyl sulfoxide group): induction of triglyceride biosynthesis could be also confirmed

xanthoangelol H
enhancement of 2-deoxy-[1,2-3H(N)]-glucose uptake [1, 4]: enhancement of 2-deoxy-[1,2-^3H(N)]-glucose uptake was found | induction of biosynthesis of triglyceride (inducing action on differentiation into mature adipocytes) [2]: induction of biosynthesis of triglyceride was found | Inhibitory Ratio (%) of Aldose Reductase ([3]; 2.5 μM): 40.4% | Inhibitory Ratio (%) of Aldose Reductase ([3]; 5 μM): 57.8% | Inhibitory Ratio (%) of Aldose Reductase ([3]; 10 μM): 72.2% | Inhibitory Ratio (%) of Aldose Reductase ([3]; 20 μM): 80.8%
